Patent US9688668B2, “Long chain base sphingosine kinase inhibitors” (UNIVERSITY OF VIRGINIA PATENT FOUNDATION, priority 2012, dated 2017)
Like-named read-outs stand apart in the source and are kept apart here.

Legend:
[1] = biological target: recombinant SphK1 (Homo sapiens (Human), UniProt Q9NYA1); test: SphK1 scintillation proximity kinase assay
[2] = patients, 1-yr trial; cited from earlier work
[3] = biological target: recombinant SphK2 (Mus musculus, UniProt Q9JIA7); test: SphK2 scintillation proximity kinase assay; assay type: biochemical; settings: Estimated Ki values at recombinant SphK2; read-out: SphK2 (estimated Ki range)
Chain of recombinant SphK2 (Q9JIA7 whole entry, looked up): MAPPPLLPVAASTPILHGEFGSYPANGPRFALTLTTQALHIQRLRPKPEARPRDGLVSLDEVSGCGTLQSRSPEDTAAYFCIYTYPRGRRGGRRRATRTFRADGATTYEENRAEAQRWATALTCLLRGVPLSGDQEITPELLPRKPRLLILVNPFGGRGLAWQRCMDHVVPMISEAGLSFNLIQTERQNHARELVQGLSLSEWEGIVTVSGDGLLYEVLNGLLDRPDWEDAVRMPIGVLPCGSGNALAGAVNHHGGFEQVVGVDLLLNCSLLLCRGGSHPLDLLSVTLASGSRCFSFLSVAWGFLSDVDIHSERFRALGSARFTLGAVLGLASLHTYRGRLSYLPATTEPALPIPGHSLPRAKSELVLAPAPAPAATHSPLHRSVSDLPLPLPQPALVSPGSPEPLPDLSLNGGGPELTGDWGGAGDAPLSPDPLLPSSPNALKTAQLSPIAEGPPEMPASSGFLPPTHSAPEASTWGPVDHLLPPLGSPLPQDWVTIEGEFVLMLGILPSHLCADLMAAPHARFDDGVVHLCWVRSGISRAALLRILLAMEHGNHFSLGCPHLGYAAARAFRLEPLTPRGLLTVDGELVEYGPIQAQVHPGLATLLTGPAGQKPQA

[4] = read-out: SphK1 (estimated Ki range), Estimated Ki values at recombinant SphK1

Chain of recombinant SphK1 (Q9NYA1 whole entry): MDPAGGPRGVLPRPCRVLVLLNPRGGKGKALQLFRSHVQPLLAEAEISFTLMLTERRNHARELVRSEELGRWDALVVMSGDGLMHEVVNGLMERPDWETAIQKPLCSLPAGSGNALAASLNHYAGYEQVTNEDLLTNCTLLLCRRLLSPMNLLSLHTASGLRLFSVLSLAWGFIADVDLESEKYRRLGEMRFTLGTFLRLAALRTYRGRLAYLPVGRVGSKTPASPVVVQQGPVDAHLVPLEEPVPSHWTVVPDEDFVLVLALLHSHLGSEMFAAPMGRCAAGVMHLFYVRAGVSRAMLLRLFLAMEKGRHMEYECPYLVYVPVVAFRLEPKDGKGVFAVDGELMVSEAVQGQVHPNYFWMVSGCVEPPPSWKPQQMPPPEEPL

Row | Ki [1, 4] | Compound | further results
1 | > 10 µM | CCCCCCCCCCCCc1ccc(C(=O)NNC(=N)N)cc1 [Compound 1, 2-(4-dodecylbenzoyl)hydrazine carboximidamide] | –
2 | > 10 µM | CCCCCCCCCCCCC/C=C/[C@@H](O)[C@@H](N)C(=N)N [Compound 2, (2S,3R,E)-2-amino-3-hydroxyoctadec-4-enimidamide] | –
3 | – | CCCCCCCCCCCCCCCCC(=N)N [Compound 3, heptadecanimidamide] | Ki [1]: 1 to 10 µM
4 | > 10 µM | CCCCCCCCCCCCC/C=C/CC(=N)N [Compound 4, (E)-heptadec-3-enimidamide] | –
5 | > 10 µM | CCCCCCCCCCc1ccc(CCCC(=N)N)cc1 [Compound 5, 4-(4-decylphenyl)butanimidamide] | –
6 | > 10 µM | CCCCCCCCCCc1ccc(/C=C/CC(=N)N)cc1 [Compound 6, (E)-4-(4-decylphenyl)but-3-enimidamide] | –
7 | > 10 µM | CCCCCCCCc1ccc(CC[C@@H](N)C(=N)N)cc1 [Compound 8, (R)-2-amino-4-(4-octylphenyl)butanimidamide] | –
8 | – | CCCCCCCCCCCCc1ccc(-c2noc(C3(C(=N)N)CC3)n2)cc1 [Compound 11, 1-(3-(4-dodecylphenyl)-1,2,4-oxadiazol-5-yl) cyclopropanecarboximidamide] | Ki [1]: 1 to 10 µM
9 | > 10 µM | CCCCCCCCCCCCc1ccc(-c2noc(CC(=N)N)n2)cc1 [Compound 12, 2-(3-(4-dodecylphenyl)-1,2,4-oxadiazol-5-yl)acetimidamide] | –
10 | – | CCCCCCCCCCCc1cc(-c2noc(C3(C(=N)N)CC3)n2)ccc1OC [Compound 14, 1-(3-(4-methoxy-3-undecylphenyl)-1,2,4-oxadiazol-5-yl)cyclopropanecarboximidamide] | Ki [1]: < 1 µM
11 | > 10 µM | CCCCCCCCCCCCc1ccc(-c2coc(C(C)C(=N)N)n2)cc1 (stereo not shown) [Compound 18, 2-(4-(4-dodecylphenyl)oxazol-2-yl)propanimidamide] | –
12 | > 10 µM | CCCCCCCCCCCCc1ccc(-c2coc(CC(=N)N)n2)cc1 [Compound 19, 2-(4-(4-dodecylphenyl)oxazol-2-yl)acetimidamide] | –
13 | < 1 µM | CCCCCCCCCCCc1cc(-c2nnc(C3(C(=N)N)CC3)o2)c(OC)cc1OC [Compound 22, 1-(5-(2,4-dimethoxy-5-undecylphenyl)-1,3,4-oxadiazol-2-yl)cyclopropanecarboximidamide] | –
14 | < 1 µM | CCCCCCCCCCCc1ccc(OC)c(-c2nnc(C3(C(=N)N)CC3)o2)c1 [Compound 24, 1-(5-(2-methoxy-5-undecylphenyl)-1,3,4-oxadiazol-2-yl)cyclopropanecarboximidamide] | –
15 | < 1 µM | CCCCCCCCCCCc1cc(-c2nnc(C3(C(=N)N)CC3)o2)ccc1OC [Compound 27, 1-(5-(4-methoxy-3-undecylphenyl)-1,3,4-oxadiazol-2-yl)cyclopropanecarboximidamide] | –
16 | > 10 µM | CCCCCCCCc1ccc(C(=O)NCCOC(=N)N)cc1 [Compound 33, 2-(4-octylbenzamido)ethyl carbamimidate] | –
17 | – | CCCCCCCCc1ccc([C@H]2CC[C@H](NC(=N)N)CC2)cc1 [Compound 34, 1-((1R,4R)-4-(4-octylphenyl)-cyclohexyl)guanidine] | Ki [1]: 1 to 10 µM
18 | > 10 µM | CCCCCCCCc1ccc(CNC(=O)C2(NC(=N)N)CC2)cc1 [Compound 35, 1-guanidino-N-(4-octylbenzyl) cyclopropanecarboxamide] | –
19 | > 10 µM | CCCCCCCCCCCCc1ccc(NC(=O)C2(NC(=N)N)CC2)cc1 [Compound 36, N-(4-dodecylphenyl)-1-guanidinocyclopropane-carboxamide] | –
20 | > 10 µM | N=C(N)N1CCC[C@H]1c1nc(-c2ccc(I)cc2)no1 [Compound 37, (S)-2-(3-(4-iodophenyl)-1,2,4-oxadiazol-5-yl)pyrrolidine-1-carboximidamide] | –
21 | > 10 µM | N=C(N)N1CCC[C@H]1c1nc(-c2ccc(C#CC3CCCC3)cc2)no1 [Compound 38, (S)-2-(3-(4-(cyclopentylethynyl)phenyl)-1,2,4-oxadiazol-5-yl)pyrrolidine-1-carboximidamide] | –
22 | > 10 µM | CCCCCCCCc1noc([C@@H]2CCCN2C(=N)N)n1 [Compound 39, (S)-2-(3-octyl-1,2,4-oxadiazol-5-yl)pyrrolidine-1-carboximidamide] | –
23 | > 10 µM | CCCCCCCCCCCCc1noc([C@@H]2CCCN2C(=N)N)n1 [Compound 40, (S)-2-(3-dodecyl-1,2,4-oxadiazol-5-yl)pyrrolidine-1-carboximidamide] | –
24 | > 10 µM | CCCCCCCCCCCCCCCCc1noc([C@@H]2CCCN2C(=N)N)n1 [Compound 41, (S)-2-(3-hexadecyl-1,2,4-oxadiazol-5-yl)pyrrolidine-1-carboximidamide] | –

Row | Ki [1, 4] | Compound | further results
25 | > 10 µM | CCCCCCCCc1ccc(-c2noc(C3(NC(=N)N)CC3)n2)cc1 [Compound 42, 1-(1-(3-(4-octylphenyl)-1,2,4-oxadiazol-5-yl)cyclopropyl)guanidine] | –
26 | > 10 µM | CCCCCCCCCCCc1ccc(-c2noc(C3(NC(=N)N)CC3)n2)cc1 [Compound 43, 1-(1-(3-(4-undecylphenyl)-1,2,4-oxadiazol-5-yl)cyclopropyl)guanidine] | –
27 | > 10 µM | CCCCCCCCCCCCc1ccc(-c2noc(C3(NC(=N)N)CC3)n2)cc1 [Compound 44, 1-(1-(3-(4-dodecylphenyl)-1,2,4-oxadiazol-5-yl)cyclopropyl)guanidine] | –
28 | > 10 µM | CCCCCCCCc1ccc(-c2noc(CN(C)C(=N)N)n2)cc1 [Compound 45, 1-methyl-1-((3-(4-octylphenyl)-1,2,4-oxadiazol-5-yl)methyl)guanidine] | –
29 | – | CCCCCCCCc1ccc(-c2noc(CNC(=N)N)n2)cc1 [Compound 46, 1-((3-(4-octylphenyl)-1,2,4-oxadiazol-5-yl)methyl)guanidine] | Ki [1]: 1 to 10 µM
30 | – | CCCCCCCCc1ccc(-c2noc([C@H](C)NC(=N)N)n2)cc1 [Compound 47, (S)-1-(1-(3-(4-octylphenyl)-1,2,4-oxadiazol-5-yl)ethyl)guanidine] | Ki [1]: 1 to 10 µM
31 | – | CCCCCCCCc1ccc(-c2noc([C@@H](NC(=N)N)C(C)C)n2)cc1 [Compound 48, (S)-1-(2-methyl-1-(3-(4-octylphenyl)-1,2,4-oxadiazol-5-yl)propyl)guanidine] | Ki [1]: 1 to 10 µM
32 | – | CCCCCCCCCCc1ccc(-c2noc([C@@H]3CCCN3C(=N)N)n2)cc1 [Compound 54, (S)-2-(3-(4-decylphenyl)-1,2,4-oxadiazol-5-yl)pyrrolidine-1-carboximidamide] | Ki [1]: 1 to 10 µM
33 | – | CCCCCCCCCCCCc1ccc(-c2noc([C@@H]3CCCN3C(=N)N)n2)cc1 [Compound 55, (S)-2-(3-(4-dodecylphenyl)-1,2,4-oxadiazol-5-yl)pyrrolidine-1-carboximidamide] | Ki [1]: > 10 µM
34 | – | CCCCCCc1ccc(-c2noc([C@@H]3CCCN3C(=N)N)n2)cc1 [Compound 56, (S)-2-(3-(4-hexylphenyl)-1,2,4-oxadiazol-5-yl)pyrrolidine-1-carboximidamide] | Ki [1]: > 10 µM
35 | > 10 µM | CCCCCCCCCCCCCCc1ccc(-c2noc([C@@H]3CCCN3C(=N)N)n2)cc1 [Compound 57, (S)-2-(3-(4-tetradecylphenyl)-1,2,4-oxadiazol-5-yl)pyrrolidine-1-carboximidamide] | –
36 | > 10 µM | CCCCCCCCc1cccc(-c2noc([C@@H]3CCCN3C(=N)N)n2)c1 [Compound 58, (S)-2-(3-(3-octylphenyl)-1,2,4-oxadiazol-5-yl)pyrrolidine-1-carboximidamide] | –
37 | > 10 µM | CCCCCCCCc1ccc(-c2noc([C@@H]3CCN(C(=N)N)C3)n2)cc1 [Compound 59, (R)-3-(3-(4-octylphenyl)-1,2,4-oxadiazol-5-yl)pyrrolidine-1-carboximidamide] | –
38 | – | N=C(N)N1CC[C@H]1c1nc(-c2ccc(-c3ccccc3)cc2)no1 [Compound 60, (S)-2-(3-([1,1′-biphenyl]-4-yl)-1,2,4-oxadiazol-5-yl)azetidine-1-carboximidamide] | Ki [1]: > 10 µM
39 | > 10 µM | CCCCCCc1ccc(-c2noc([C@@H]3CCN3C(=N)N)n2)cc1 [Compound 61, (S)-2-(3-(4-hexylphenyl)-1,2,4-oxadiazol-5-yl)azetidine-1-carboximidamide] | –
40 | – | CCCCCCCCCCc1ccc(-c2noc([C@@H]3CCN3C(=N)N)n2)cc1 [Compound 63, (S)-2-(3-(4-decylphenyl)-1,2,4-oxadiazol-5-yl)azetidine-1-carboximidamide] | Ki [1]: 1 to 10 µM
41 | > 10 µM | CCCCCCCCc1ccc(-c2noc([C@@H]3CCN3C(=N)NO)n2)cc1 [Compound 65, (S)-N-hydroxy-2-(3-(4-octylphenyl)-1,2,4-oxadiazol-5-yl)azetidine-1-carboximidamide] | –
42 | – | CCCCCCCCc1ccc(-c2noc(C3CN(C(=N)N)C3)n2)cc1 [Compound 66, 3-(3-(4-octylphenyl)-1,2,4-oxadiazol-5-yl)azetidine-1-carboximidamide] | Ki [1]: 1 to 10 µM
43 | > 10 µM | CCCCCCCCCCc1ccc(-c2noc(C3CN(C(=N)N)C3)n2)cc1 [Compound 67, 3-(3-(4-decylphenyl)-1,2,4-oxadiazol-5-yl)azetidine-1-carboximidamide] | –
44 | > 10 µM | CCCCCCCCc1cccc(-c2noc(C[C@@H]3CCCN3C(=N)N)n2)c1 [Compound 74, (S)-2-((3-(3-octylphenyl)-1,2,4-oxadiazol-5-yl)methyl)pyrrolidine-1-carboximidamide] | –
45 | > 10 µM | CCCCCCCCCCCCc1noc(C[C@@H]2CCCN2C(=N)N)n1 [Compound 76, (S)-2-((3-dodecyl-1,2,4-oxadiazol-5-yl)methyl)pyrrolidine-1-carboximidamide] | –
46 | > 10 µM | N=C(N)N1CCC[C@H]1Cc1nc(-c2ccc(CS(=O)(=O)c3ccccc3)cc2)no1 [Compound 77, (S)-2-((3-(4-((phenylsulfonyl)methyl)phenyl)-1,2,4-oxadiazol-5-yl)methyl)pyrrolidine-1-carboximidamide] | –
47 | – | CCCCCCCCc1ccc(CCC(N)(CO)CO)cc1 [fingolimod, 2-amino-2-[2-(4-octylphenyl)ethyl]propane 1,3-diol] | hypertension (blood pressure rise) [2]: 2-3 mmHg

Row | Compound | Ki [1, 4] | further results
48 | (S)-2-((3-(3-nonylphenyl)-1,2,4- oxadiazol-5-yl)methyl)pyrrolidine-1- carboximidamide [Compound 75] | > 10 µM | Ki [3]: > 10 µM
